In publication PMC11796197, “Targeting AI-2 quorum sensing: harnessing natural products against Streptococcus suis biofilm infection” (Veterinary Research, 2025):

Biological target: LuxS (S-ribosylhomocysteinase) (Streptococcus suis, UniProt A4VZM6)
Experiment: Ellman (DTNB) homocysteine assay, […] nm, SRH as substrate
Format: biochemical
Details: SRH 0-1200 uM, sodium phosphate buffer, 37 C, 15 min, LuxS 1 mg/mL

Sequence of LuxS (S-ribosylhomocysteinase) (A4VZM6 whole entry): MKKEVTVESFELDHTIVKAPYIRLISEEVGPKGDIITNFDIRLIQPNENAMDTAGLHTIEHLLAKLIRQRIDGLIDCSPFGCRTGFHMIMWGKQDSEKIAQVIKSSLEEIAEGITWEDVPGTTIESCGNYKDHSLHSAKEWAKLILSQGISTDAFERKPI

Structure (SMILES): O=C(/C=C/c1ccc(O)c(O)c1/C=C/c1ccc(O)c(O)c1)O[C@H](Cc1ccc(O)c(O)c1)C(=O)O [SAA, salvianolic acid A]
- Ellman (DTNB) homocysteine assay, 412 nm, SRH as substrate (noncompetitive): suggesting a noncompetitive inhibitory effect of SAA on LuxS

Structure (SMILES): COc1ccc(/C=C/c2cc(O)cc(O[C@@H]3O[C@H](CO)[C@@H](O)[C@H](O)[C@H]3O)c2)cc1O [RH, rhapontin]
- Ellman (DTNB) homocysteine assay, 412 nm, SRH as substrate (competitive): indicating a competitive inhibitory impact of RH on LuxS
